For 21 compounds, IC50 results are on record in ChEMBL document CHEMBL5728026, “Indole derivative used as CRTH2 inhibitor” (2020).

Broadly, the pIC50 is the IC50 on a negative log10 scale, so that one unit is a factor of ten.

Structures are written as SMILES. pIC50: −log10 of the molar value.

The assay has as its target T1, Prostaglandin D2 receptor 2 (Homo sapiens, UniProt Q9Y5Y4).
T1 sequence (Q9Y5Y4 whole entry): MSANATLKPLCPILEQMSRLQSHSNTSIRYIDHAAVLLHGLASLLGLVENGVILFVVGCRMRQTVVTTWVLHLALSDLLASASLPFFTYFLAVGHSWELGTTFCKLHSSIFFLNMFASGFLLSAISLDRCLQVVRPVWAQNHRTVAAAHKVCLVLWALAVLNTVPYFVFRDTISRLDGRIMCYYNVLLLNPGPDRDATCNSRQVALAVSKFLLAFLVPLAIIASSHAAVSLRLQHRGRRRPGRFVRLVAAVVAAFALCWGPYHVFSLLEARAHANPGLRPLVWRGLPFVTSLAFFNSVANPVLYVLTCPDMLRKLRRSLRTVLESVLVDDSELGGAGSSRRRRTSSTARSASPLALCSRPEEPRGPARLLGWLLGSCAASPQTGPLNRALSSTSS
As to the kind of experiment: Biological Activity Assay: Experimental Method:PathHunter CHO-K1 CRTH2 β-arrestin cells (DiscoverX, catalogue number 93-0291C2) grew under standard conditions, and were inoculated into a white-wall 384-well microplate at a density of 5,000 cells/well. 20 μL of Cell Plating Reagent 1 was used in each well. Before the test, the cells were incubated overnight at 37° C./5% CO2. A test compound was serially diluted in DMSO with a dilution factor of 3-fold to give 8 concentrations of the test compound. Shortly before the test, the serially diluted test compound was further diluted with the test buffer to 5 times of the test concentration. 5 μL of the further diluted test compound was added to the cells, and the cells were incubated for 30 min at 37° C. The concentration of the solvent was 1%. 5 μL of 6×EC80 agonist (PGD2) buffer was added to the cells, and the cells were incubated for 90 min at 37° C. Measured signals were generated by one-time addition of 15 μL (50% v/v) of PathHunter detection mixture reagent and subsequent one-hour incubation. The microplate was read through the chemiluminescent signals of PerkinElmer Envision™ reader. Biological activity of the test compound was analyzed by CBIS data analysis suite (ChemInnovation, CA), and was denoted as IC50 value.
For the compound `Cc1c(C2=CS(=O)(=O)c3cc(Cl)ccc32)c2cc(F)ccc2n1CC(=O)O`, the pIC50 is over 7.00.

As for `Cc1c(Cc2ccc3c(c2)C(F)(F)CCS3(=O)=O)c2cc(F)ccc2n1CC(=O)O`, the pIC50 was over 7.00.

In the case of `Cc1c(Cc2ccc3c(c2)N(C)CN(C)S3(=O)=O)c2cc(F)ccc2n1CC(=O)O`, the pIC50 is over 7.00.

As to `Cc1c(Cc2ccc3c(c2)CCS3(=O)=O)c2cc(NC(=O)C3CC3)ccc2n1CC(=O)O`, the pIC50 was under 6.00.

Regarding `Cc1c(Cc2ccc3c(c2)C(F)(F)CCS3(=O)=O)c2cccnc2n1CC(=O)O`, the pIC50 was under 6.00.

On to `Cc1c(Cc2ccc3c(c2)CNS3(=O)=O)c2cc(F)ccc2n1CC(=O)O`, for which the pIC50 is over 7.00.

`Cc1c(Cc2ccc3c(c2)C(F)(F)CN(C)S3(=O)=O)c2cc(F)ccc2n1CC(=O)O`: the pIC50 is over 7.00.

Consider `CC1=Nc2cc(Cc3c(C)n(CC(=O)O)c4ccc(F)cc34)ccc2S(=O)(=O)N1`, for which the pIC50 is over 7.00.

As to `Cc1c(Cc2ccc3c(c2)C(F)(F)CCS3(=O)=O)c2cc(F)ccc2n1Cc1nn[nH]n1`, the pIC50 was under 6.00.

For `Cc1c(C2=CS(=O)(=O)c3cc(C(F)(F)F)ccc32)c2cc(F)ccc2n1CC(=O)O`, the pIC50 was over 7.00.

For the compound `Cc1c(Cc2ccc3c(c2)C(C)(C)CS3(=O)=O)c2cc(F)ccc2n1CC(=O)O`, the pIC50 was over 7.00.

`Cc1c(Cc2cc3c(cc2C(F)(F)F)S(=O)(=O)N(C)CN3C)c2cc(F)ccc2n1CC(=O)O`: the pIC50 is over 7.00.

As to `Cc1c(C2=CS(=O)(=O)c3ccc(F)cc32)c2cc(F)ccc2n1CC(=O)O`, the pIC50 was under 6.00.

For `O=C(O)Cn1c(-c2ccccc2)c(Cc2ccc3c(c2)CCS3(=O)=O)c2ccccc21`, the pIC50 is under 6.00.

`Cc1c(Cc2ccc3c(c2)C(F)(F)CCS3(=O)=O)c2cnccc2n1CC(=O)O`: the pIC50 was under 6.00.

`Cc1c(C2=CS(=O)(=O)c3cc(-c4cc(F)cc(Cl)c4)ccc32)c2cc(F)ccc2n1CC(=O)O`: the pIC50 is over 7.00.

Consider `Cc1c(C2=CCS(=O)(=O)c3ccccc32)c2cc(F)ccc2n1CC(=O)O`, for which the negative-log IC50 (pIC50) was over 7.00.

Turning to `Cc1c(Cc2ccc3c(c2)N=CN(C)S3(=O)=O)c2cc(F)ccc2n1CC(=O)O`, the pIC50 was over 7.00.

Turning to `Cc1c(Cc2ccc3c(c2)CCS3(=O)=O)c2ccc(C(F)(F)F)cc2n1CC(=O)O`, the pIC50 is under 6.00.

Take `Cc1c(C2=CS(=O)(=O)c3ccccc32)c2ccc(Cl)cc2n1CC(=O)O`: the pIC50 was over 7.00.

Turning to `Cc1c(C2=CS(=O)(=O)c3ccccc32)c2cc(F)ccc2n1CC(=O)O`, the pIC50 is over 7.00.
